Measurements taken from US6503492B2, “Antiperspirant or deodorant compositions” (priority 2001, dated 2003).
Values joined by “and” are separate entries in the source; they are usually repeats but may differ in a detail not shown here. Equal entries are not always repeated.

Tests used:
histamine-induced itch [1] = assay: Histamine-induced itch, test material topically applied in Aqueous Cream BP (histamine iontophoresis, VAS); conditions: for Itch score (area under the curve): VAS area 0 to 5 min; for Itch score % of control: versus vehicle alone
histamine-induced itch [2] = assay: Histamine-induced itch, test material topically applied in ethanol:Vaseline Intensive Care Lotion; type: in vivo, human; conditions: for Anti-pruritic action (in words): comparison N-acyl ethanolamides in ethanol:VICL lotion; for Itch score % of control: comparison N-acyl ethanolamides, 50 mM in ethanol, in ethanol:VICL lotion, versus vehicle alone of the same run
Procedure: This mixture was applied (250 μl/5 cm^2-5 times at 1 h intervals) and histamine iontophoresis was performed on the treated site in the method described in Example 2. The vehicle control was ethanol:VICL (volume ratio 1:1).
Related molecules stearylethanolamine (SEA; 50 mM in ethanol) and linoleoylethanolamine (LAMEA; 50 mM in ethanol) were tested as potential activating agents for a CBR, employing the test method described in Example 3 and applied in the ethanol:VICL lotion.

[3] = system: skin organotypic cultures (Epiderm™); assay: Skin organotypic culture: antiperspirant (APF1)-induced IL-6 release, ELISA; conditions: for IL-6 pg/ml ± SD: APF1 topically, 24h
[4] = system: antiperspirant-induced irritation; assay: Antiperspirant-induced irritation in vivo, 47 h Finn chamber patch test, erythema grading; design: species or system human
Procedure: In this Example, patch tests were performed on a mixed panel of 49 volunteers with age ranges between 18 and 55, using a double-blind protocol with randomized patch sites. Samples (20 mg) were applied to a filter paper that was placed within a Finn chamber (0.8 cm internal diameter). The chambers were then attached to the volar forearm using Scanpore™ tape (Norgesplater, Nor.) and left for 47 h. At the end of the 47 h period, the patches were removed and the site was left open for 5 h when the erythema associated with the patch was visually assessed and scored using an in-house standard assessment Patch Grading Scale as set out below.

histamine-induced itch [5] = assay: Histamine-induced itch, test material applied under water-impermeable patch for 24 hours; conditions: PEA 100 mM under patch
[6] = AEA 5% (w/v) in Aqueous Cream BP

SMILES: CCCCC/C=C\C/C=C\C/C=C\C/C=C\CCCC(=O)NCCO [AEA, (all Z)-N-(2-Hydroxyethyl)-5,8,11,14-eicosatetraenamide]
- Itch score (area under the curve) (histamine-induced itch [1]; [6]): 1322
- Itch score % of control (histamine-induced itch [1]; [6]): 76 % of control
- Effect on histamine-induced itch (in words) (histamine-induced itch [1]; anandamide topically applied): inhibitor of histamine-induced itch

SMILES: CCCCCCC(C)(C)c1cc(O)c2c(c1)OC(C)(C)[C@@H]1CC=C(CO)C[C@@H]21 [HU-210, (6aR)-trans-3-(1,1-Dimethylheptyl)-6a,7,10,10a-tetrahydro-1-hydroxy-6,6-dimethyl-6H-dibenzo[b,d]pyran-9-methanol]
- Itch score % of control (histamine-induced itch [1]; HU-210 0.05% (w/v) in Aqueous Cream BP): 7.3 % of control
- Itch score (area under the curve) (histamine-induced itch [1]; HU-210 0.05% (w/v) in Aqueous Cream BP, volar forearm, after 4 hours): 101
- Itch score % of control (histamine-induced itch [1]; HU-210 0.5% (w/v) in Aqueous Cream BP): 6.2 % of control
- Itch score (area under the curve) (histamine-induced itch [1]; HU-210 0.5% (w/v) in Aqueous Cream BP, volar forearm, after 4 hours): 119
- Effect on histamine-induced itch (in words) (histamine-induced itch [1]; HU-210 topically applied in Aqueous Cream BP): capable of reducing histamine-induced itch

SMILES: CCCCC/C=C\C/C=C\CCCCCCCC(=O)NCCO [LAMEA, linoleoylethanolamine]
- Anti-pruritic action (in words) (histamine-induced itch [2]): unable to demonstrate any anti-pruritic action or even appeared to exacerbate the itch response
- Itch score % of control (histamine-induced itch [2]): 169 % of control and 108 % of control and 100 % of control

SMILES: CCCCCCCCCCCCCCCC(=O)NCCO [PEA, Palmitoylethanolamide]
- Effect on histamine-induced itch (in words) (histamine-induced itch [2]; PEA topically applied in the presence of a lotion): can inhibit histamine-induced itch
- IL-6 pg/ml ± SD ([3]; PEA 0.1 μM in the medium): 38.3 ± 7.6 pg/mL
- IL-6 pg/ml ± SD ([3]; PEA 1.0 μM in the medium): 36.5 ± 11.6 pg/mL
- IL-6 pg/ml ± SD ([3]; PEA 10.0 μM in the medium): 59.5 ± 13.8 pg/mL
- IL-6 pg/ml ± SD ([3]; PEA 100.0 μM in the medium): 43.0 ± 7.9 pg/mL
- IL-6 pg/ml ± SD ([3]; PEA 1000.0 μM in the medium): 63.0 ± 24.8 pg/mL
- AP-induced IL-6 release (in words) ([3]; PEA at all concentrations used, Dunnet's test p<0.05): significantly decrease AP-induced IL-6 release
- Irritation induced by APF1 (in words) ([4]; 0.25% palmitoylethanolamide in APF1, Wilcoxon signed rank test, significance level 5%): reduced significantly
- Mean Irritation Score ([4]; APF1 with 0.25% PEA, 20 mg in Finn chamber 47 h, scored 5 h after removal, Patch Grading Scale 0-4, 49 volunteers): 0.54
- Effect on histamine-induced itch (in words) (histamine-induced itch [5]): can inhibit histamine-induced itch

SMILES: CCCCCCCCCCCCCCCCCC(=O)NCCO [SEA, stearylethanolamine]
- Anti-pruritic action (in words) (histamine-induced itch [2]): unable to demonstrate any anti-pruritic action or even appeared to exacerbate the itch response
- Itch score % of control (histamine-induced itch [2]): 231 % of control and 260 % of control and 190 % of control
